The test system of assay [1] is marrow HPC of irradiated mice. The experiment in a line: Colony assays: total CFC (CFU-GM, BFU-E, CFU-GEMM) per femur after irradiation. In kind it is in vivo, C57B1/6 mice. The protocol:
After 30 days, analysis of total CFC(CFU-GM, BFU-E and CFU-GEMM) was performed in methylcellulose culture. Referring now to FIG. 2B, data are Mean±SEM from N=5 mice per group, each assayed individually.
Irradiated mice were identified by ear punches and treated with either a single subcutaneous dose of dmPGE2 (40 μg/mouse) or vehicle control at 6 hours post-irradiation (N=20 mice per group, evenly split male/female); 6 mg/kg meloxicam dosed once daily on days 2 through 5 post-irradiation or vehicle control (N=20 or 40 mice per group, respectively, evenly split male/female); or a single subcutaneous dose of CoCl2 (60 mg/kg) at 6 hours post-irradiation (N=20 mice per group, evenly split male/female). One mouse per treatment group was housed in each individual cage.
After 35 days, remaining irradiated mice were sacrificed, bone marrow acquired from femurs, and total CFC including CFU-GM, BFU-E and CFU-GEMM were enumerated in 1% methylcellulose/IMDM containing 30% HI-FBS, 1 U/ml rhEPO, 10 ng/ml rhGM-CSF and 50 ng/ml rmSCF as described (Broxmeyer et al., 2007; Fukuda et al., 2007). All cultures were established in triplicate from individual animals, incubated at 37° C., 5% CO2, 5% O2 in air for 7 days and colonies quantified by microscopy.
Referring now to FIG. 2B, after 30 days, analysis of total CFC(CFU-GM, BFU-E and CFU-GEMM) was performed in methylcellulose culture. Data are Mean±SEM from N=5 mice per group, each assayed individually.

Assay [2] concerns irradiated mice (796 cGys, LD50). The experiment in a line: 30-day survival after irradiation, murine HS-ARS model. It counts as in vivo, C57B1/6 mice. Particulars: 30 days. The protocol:
Male and female C57B1/6 mice were purchased from Jackson Laboratories at 10-12 weeks of age. Mice were housed in microisolator cages (5 mice per cage) with sterilized direct contact bedding (Alpha Dri). Animal holding rooms were maintained at 21±3° C. with 30 to 80% relative humidity, with at least 10 air changes per hour of 100% fresh air, and a 12-hour light/dark cycle. Mice were fed ad libitum with commercial rodent chow (Harlan 2018SXC) in cage hoppers and acidified (pH 2.0-3.0) water in sipper tube bottles. The Institutional Animal Care and Use Committee of IUSM approved all protocols.
Mice were placed in single chambers of a plexiglass irradiation pie (Braintree), with 15 mice per pie, alternating groups of males and females within the same pie. The mice in each group of mice, irradiated together in the same pie, were divided equally among all treatment groups to ensure that each group received the same irradiation exposure conditions. […]
Cohorts of 20-40 mice were irradiated with an LD50 dose from a ^137Cs source. […] Animals were monitored for morbidity and mortality twice/daily for 30 days and euthanized when moribund. Referring now to FIG. 2A, survival curves were analyzed with a log-rank test. […]
Moribund mice were scored for signs of early euthanasia based on three parameters: the severity of hunched posture, squinted/closed eyes, and decreased activity. Each criterion was scored on a scale of 1 to 3, with 3 being the most severe. Moribund mice with a score of 8 or 9 were euthanized and the date of death was recorded.
Irradiated mice with therapeutic exogenously provided amounts of PGE2 mitigated the damage to hematopoietic cells observed post-irradiation with dmPGE2 treatment, using a murine HS-ARS model developed by Dr. Orschell at IUSM. […] Animals were monitored for morbidity and mortality twice/daily for 30 days and euthanized when moribund. Survival curves were analyzed with a log-rank test.

Assay [3] has as its system bone marrow HPC. The experiment in a line: NSAID effect on bone marrow progenitor cell expansion in non-irradiated mice (CFU-GM). It counts as in vivo. The note with it: NSAID twice daily for 4 days, assayed on day 5. On the procedure: Mice were administered dual (Indomethacin, meloxicam), COX2 selective (Valdecoxib) or COX1 selective (SC560) inhibitors twice daily for 4 days. Referring now to FIG. 1, on day 5, mice were sacrificed, bone marrow from one femur isolated, total nucleated cells counted on a Hemavet 950FS and CFU-GM determined. Data are Mean±SEM for N=5 mice per group, each assayed individually.

Assay [4] relates to HSC. The note with it: WO 2010/054271, cited from earlier work.

Consider four compounds from patent US20140017339A1, “MATERIALS AND METHODS FOR TREATING RADIATION POISONING” (priority 2010, published 2014).

In the case of `Cc1cnc(NC(=O)C2=C(O)c3ccccc3S(=O)(=O)N2C)s1` [meloxicam, 4-hydroxy-2-methyl-N-(5-methyl-2-thiazolyl)-2H-1,2-benzothiazine-3-carboxamide-1,1-dioxide], the “bone marrow CFC content versus control” value in assay [1] (6 mg/kg once daily on days 2 through 5 post-irradiation, femurs 35 days post-irradiation) is given as “significantly increased bone marrow CFC content compared to control”. Further, the percent survival in assay [2] (6 mg/kg once daily on days 2 through 5 post-irradiation, control 50% survival, P=0.034) came out at 80%. For the same compound, the “HPC expansion in bone marrow” value in assay [3] is listed as “increase HPCs within the bone marrow”.
For `CCCCC[C@H](O)/C=C/[C@H]1[C@H](O)CC(=O)[C@@H]1C/C=C\CCCC(=O)O` [PGE2, prostaglandin E2], the “homing/engraftment in bone marrow transplants” value in assay [4] is on record as “increased homing/engraftment”. For the same compound, the “apoptosis of HSC” value in assay [4] (through up-regulation of Survivin) is “decreased apoptosis”.
In the case of `[Cl][Co][Cl]` [CoCl2, cobalt chloride], in assay [1] (single subcutaneous dose 60 mg/kg at 6 hours post-irradiation, day 35), the “CFC in bone marrow” value was “significantly increased CFC in bone marrow”. The compound also returned a percent survival in assay [2] (single subcutaneous dose 60 mg/kg at 6 hours post-irradiation, P=0.0011) of 95%.
As for `CCCCC(C)(C)[C@H](O)/C=C/[C@H]1[C@H](O)CC(=O)[C@@H]1C/C=C\CCCC(=O)O` [dmPGE2, 16,16 dimethyl prostaglandin E2], the “marrow HPC (total CFC per femur) versus control irradiated mice” value in assay [1] (single subcutaneous dose 40 μg/mouse at 6 hours post-irradiation, 796 cGys, day 35) was “significantly higher than control irradiated mice”. Moreover, the percent survival in assay [2] (single subcutaneous dose 40 μg/mouse at 6 hours post-irradiation, 796 cGys, control 50% survival, P=0.0011) was 95%.
